Source: the Biogen ADME set (Fang et al. 2023)
In brackets after ≈: the same amount, converted by molar mass.

Details: for aqueous solubility: pH 6.8

MDR1-MDCK efflux ratio	intrinsic clearance, human liver microsomes [mL/min/kg]	intrinsic clearance, rat liver microsomes [mL/min/kg]	aqueous solubility [µg/mL]	fraction unbound, human plasma	fraction unbound, rat plasma	Compound
0.646	164	1240	45.5 (≈ 138 µM)			O=C(NCCc1ccc2c(c1)OCO2)N1CCc2sccc2C1
22.4			5.79 (≈ 15 µM)			O=C(Cn1nc2n(c1=O)-c1ccccc1C1=NCCN12)N1CCc2ccccc21
0.738	≤ 4.74	15.2	34.1 (≈ 154 µM)			CNC(=O)CN(C)c1cccc(F)c1C#N
0.527	8.3	56.2				CC(=O)c1ccc2c(c1)CCN(CCC1OCCO1)CC2
0.716	359	1950	55.5 (≈ 154 µM)			COc1ccccc1NC(=O)CN1CCCN(c2nc(C)cs2)CC1
0.498	70.9	574	18.6 (≈ 85.1 µM)			CCCCCCNc1ncnc2[nH]ccc12
1.37	≤ 4.74	24.3				CN(C)C(=O)C(C)(C)NC(=O)OC(C)(C)C
0.631	19.2	248	27.9 (≈ 138 µM)			CSCc1csc(NC(C)=O)n1
	≤ 4.74	≤ 10.7	50.5 (≈ 195 µM)			Nc1ccc2c(ccn2CC(=O)N2CCOCC2)c1
2.26	400	1630	29.2 (≈ 78.4 µM)	0.0351	0.0289	Fc1ccccc1-c1c[nH]nc1C1CCCN1Cc1ccc2ncccc2c1 (stereo not given)
6.11	26.4	131	56.2 (≈ 181 µM)			CN(CC(=O)Nc1cccc(F)c1)C(=O)c1cccc(C#N)c1
	90.9	365				CN1CCC(CNc2ccc3ncc(-c4cccc(OC(F)(F)F)c4)n3n2)CC1
0.527	7.3	20.5	22.2 (≈ 89.4 µM)			CCC(CC)NC(=O)c1ccc2ncsc2c1
0.972	≤ 4.74	74.3				Cc1cccc(C)c1CNC1(CCO)CCOCC1
			69.4 (≈ 247 µM)			Cc1cc(NC(=O)CN(C)c2c(F)cccc2F)on1
	6.17	50	52.9 (≈ 229 µM)			CCC(CC)NC(=O)c1ccc(C#N)c(C)n1
4.56	≤ 4.74	≤ 10.7	33.6 (≈ 158 µM)			Cn1cnnc1CNc1ccccc1C#N
5.49			0.2 (≈ 0.534 µM)			Cc1ccc(-c2ccc3c(ccc4sc5c(c43)NC[C@@H](C)NC5=O)n2)cn1
2.06	6.12	211	44.3 (≈ 137 µM)			Cc1ccccc1CC(=O)N1CCN(C(=O)c2ccccc2)CC1
0.673	89.4	1690	36.4 (≈ 113 µM)			CCc1cc(CN(C)c2nccc(-c3ccc(C)nc3C)n2)on1

MDR1-MDCK efflux ratio	intrinsic clearance, human liver microsomes [mL/min/kg]	intrinsic clearance, rat liver microsomes [mL/min/kg]	aqueous solubility [µg/mL]	fraction unbound, human plasma	fraction unbound, rat plasma	Compound
4.48	4.84	47	49.6 (≈ 169 µM)			O=C1NCCCCC1NC(=O)N1CCc2sccc2C1 (stereo not given)
4.08	≤ 4.74	159				CCC(C)(C)N1CCN(C(=O)Nc2cnn(CC(C)C)c2C(F)F)CC1
1.09	10.5	649				Cc1nc2cc(=O)[nH]n2c(C)c1CC(=O)OC1CCCCC1
2.59	≤ 4.74	322	34.9 (≈ 136 µM)			CN(CC#N)C(=O)c1cccc(CN2CCCC2)c1
0.814	≤ 4.74	≤ 10.7				Cc1nc2ncc3c(n2n1)CC(C)(C)CC3=O
29.3	≤ 4.74	79.8				Cc1ccc(-c2ccc(N(C)CCO)nn2)c(-n2cccn2)c1
25.1	464	1250		0.11	0.14	CN(C)C(=O)C1(Cc2ccccc2-c2ccccc2)CCN(C(=O)c2cnn(C)c2)CC1
2.75	≤ 4.74	≤ 10.7	35.4 (≈ 133 µM)			Cc1nc2ccccc2n1Cc1ccc(C(=O)O)cc1
	256	203				Cc1ccc(-c2cnc3ccccc3n2)cc1N
0.485	16.8	134	2.96 (≈ 11.2 µM)			Clc1cc2ncc(-n3ccnc3)nc2cc1Cl
0.66	≤ 4.74	142	25.1 (≈ 96.7 µM)			OC1(Cn2nnc(-c3cccnc3)n2)CCCCC1
	14.7	399	4.59 (≈ 12.4 µM)			c1ccc(-c2ccc(Cn3ccnc3-c3cc4n(n3)CCCNC4)cc2)cc1
0.672	≤ 4.74	26.1	36.4 (≈ 149 µM)			CCOc1ncccc1-c1nc(C)cc(NC)n1
24.7	≤ 4.74	≤ 10.7	49.4 (≈ 154 µM)			CCc1cnc(CNC(=O)N2CCC(n3cncn3)CC2)s1
	209	790	3 (≈ 12.6 µM)			Nc1nccc2ccc(-c3cccc(F)c3)cc12
11.6	7.72	126				CN(CC1CCC1)C(=O)C1CCN(c2ccc3nncn3n2)CC1
0.56	≤ 4.74	180	41.2 (≈ 162 µM)			N#CCCCN1CCN(c2cc(C#N)ccn2)CC1
	7.61	17.1				CCC(C)(C)c1ccc(Oc2ccc(NC3=NN(c4ccccc4)C(=O)C3)cc2)cc1
0.672	≤ 4.74	77.5	44.7 (≈ 162 µM)			CN(c1ncnc2c1cnn2CCO)C1CCCCC1
1.33	10.7	50				CCc1nc(N2CC(CO)C2)c2ccsc2n1

MDR1-MDCK efflux ratio	intrinsic clearance, human liver microsomes [mL/min/kg]	intrinsic clearance, rat liver microsomes [mL/min/kg]	aqueous solubility [µg/mL]	fraction unbound, human plasma	fraction unbound, rat plasma	Compound
	6.7	≤ 10.7	41.2 (≈ 185 µM)			Cc1cnn(Cc2cc(F)ccc2F)c1N
0.59	10.5	65.8	20.5 (≈ 87 µM)			Cc1ccncc1-c1ccc(-c2ccn[nH]2)cc1
	157	721				Nc1ncccc1OCc1cccc(Cl)c1
			0.45 (≈ 1.23 µM)			O=C(Nc1nc2ccccc2[nH]1)c1cc(-c2ccccc2)nc2ccccc12
0.257			0.29 (≈ 1.06 µM)			c1ccc(OCc2nc3cc4ccccc4cc3[nH]2)cc1
			0.54 (≈ 1.45 µM)			CC(C)Oc1ccc(C(=O)Nc2cccc(-c3nc4cnccc4o3)c2)cc1
1.33	56.1	565				CCCOc1ccn2c(C(C)=O)cc(-c3ccccc3S(C)(=O)=O)c2c1
	147	513	4.4 (≈ 9.2 µM)			O=C(CCN1CCN(C(=O)OCc2cc(Cl)cc(Cl)c2)CC1)c1ccc2[nH]c(=O)oc2c1
0.73	83.8	5820				O=C(CSc1ccc2c(c1)OCCO2)NC1CCCC1
1	5.56	366	28.4 (≈ 109 µM)			COc1ccc(CCn2c(C3CC3)n[nH]c2=O)cc1
	7.67	82.9				O=C(NCc1cccc2c1OCCCO2)c1cscn1
34.7	≤ 4.74	≤ 10.7				O=C(Nc1ccn(CC(F)F)n1)NC1CCN(C2CCCC2)CC1
	75	591				Fc1cc(-c2noc(C3CCN(C4CC4)CC3)n2)cc(F)c1F
0.617	41.7	2400	42.6 (≈ 154 µM)			Cc1ccc(-c2ccc(=O)n(Cc3ccncc3)n2)cc1
0.721	82.3	1060				COc1cccc(O[C@H]2CCN(C(=O)c3cc(-c4ccc(C)cc4)on3)CC[C@@H]2O)c1
1.09	107	443	41.7 (≈ 139 µM)			c1ccc(CCc2n[nH]c(-c3cccc4cnccc34)n2)cc1
38.3			0.9 (≈ 1.7 µM)			CS(=O)(=O)c1ccc(-c2nnc(/C=C/c3nnc(-c4ccc(C#N)cc4)o3)n2-c2ccccc2Cl)nc1
0.711	≤ 4.74	22.9	40.8 (≈ 195 µM)			COCCNc1ncnc2ccsc12
6.94	19.7	540	49.7 (≈ 146 µM)			Cc1nccn1-c1cncc(N2CCN(CC3CCCC3)C(=O)C2)n1
0.641	94.9	1180	33.6 (≈ 124 µM)			CN(Cc1cscn1)c1nc2c(cc1C#N)CCC2
